This note sets out measurements from ChEMBL document CHEMBL1141836, “Sporovexins A-C and a new preussomerin analog: antibacterial and antifungal metabolites from the coprophilous fungus Sporormiella vexans” (1999).

Calls of active or inactive are those of the source. The calls are words filed in the database; no cut-off is given here.

For one assay, the system named is Candida albicans. The assay can be described thus: Antifungal activity against Candida albicans ATCC 10453 at 200 ug/disk by standard disk assay. The assay is classed as functional, organism-based.
In another assay the test system is Ascobolus. The assay can be described thus: Antifungal activity against Ascobolus furfuraceus NRRL 6460 assessed as reduction in radical growth rate at 200 ug/disk by centerpoint inoculation disk assay. On the set-up: scale not given: the % may be the effect or the level left. The assay is classed as functional.
The next assay has as its system Bacillus subtilis. The assay can be described thus: Antibacterial activity against Bacillus subtilis ATCC 6051 at 100 ug/disk by standard disk assay. The following applies: read-out: IZ. The format is functional.

With `CC(CCOc1ccc(C(=O)O)cc1)C(=O)O` (configuration not stated) [SPOROVEXIN A], the outcome in the assay on Candida albicans was inactive. Besides, the Activity in the assay with Ascobolus stood at 90%. In the assay on Bacillus subtilis, the zone of inhibition at 100 µg/disc was found to be 9 mm. Consider `CC(CCOc1ccc(C(=O)NCCC(=O)O)cc1)C(=O)O` (configuration not stated), for which the result with Candida albicans was inactive. For `O=C1C[C@@H](O)[C@]23Oc4ccc(O)c5c4[C@](Oc4cccc1c42)(O3)[C@@H]1O[C@@H]1[C@H]5O`, the result with Candida albicans was inactive. Moreover, the Activity in the assay with Ascobolus turned out to be 40%. On to `CC(C(=O)O)C(O)COc1ccc(C(=O)O)cc1` (configuration not stated), for which the outcome in the assay on Candida albicans was inactive.
